Our source for the IC50 values is US10508109B2 (priority 2015, dated 2019).

One assay deals with A549. As to the kind of experiment: Cell-based assay, anti-proliferative activity (Cell Counting Kit-8, 72 hours). The note with it: Homo sapiens; A549 cells, Cell Counting Kit-8, 72 hours; read-out: IC50 (μM) A549. In a few lines:
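After compound exposure of cells in 96-well plates, growth was measured colorimetrically and converted into IC50 values.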
(Tetrazolium assays rely on reduction of a dye to a coloured formazan, in cell work by metabolically active cells.)

The next assay relates to CCD-18Co. The description is as above. The note with it: Homo sapiens; CCD-18Co cells, Cell Counting Kit-8, 72 hours; read-out: IC50 (μM) CCD-18Co. In a few lines: (§1)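 CCK-8 growth read-out at 72 h post compound exposure; 96-well seeding. IC50 from 8-point dilution (0–100 micro-M, twofold steps from 1.5625 micro-M).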
The test system of another assay is HCT-116. The assay is described as above. The note with it: Homo sapiens; HCT-116 cells, Cell Counting Kit-8, 72 hours; read-out: IC50 (μM) HCT-116. In a few lines:
as §1

In a further assay the test system is HFL1. Described as above. The settings on record: Homo sapiens; HFL1 cells, Cell Counting Kit-8, 72 hours; read-out: IC50 (μM) HFL1. A digest of the protocol:
as §1

Assay [1] deals with T1, SUV39H2 (Homo sapiens (Human), UniProt Q9H5I1). The note with it: read-out: IC50 (μM) Suv 39H2 assay; enzyme assay.
T1 sequence (Q9H5I1 whole entry): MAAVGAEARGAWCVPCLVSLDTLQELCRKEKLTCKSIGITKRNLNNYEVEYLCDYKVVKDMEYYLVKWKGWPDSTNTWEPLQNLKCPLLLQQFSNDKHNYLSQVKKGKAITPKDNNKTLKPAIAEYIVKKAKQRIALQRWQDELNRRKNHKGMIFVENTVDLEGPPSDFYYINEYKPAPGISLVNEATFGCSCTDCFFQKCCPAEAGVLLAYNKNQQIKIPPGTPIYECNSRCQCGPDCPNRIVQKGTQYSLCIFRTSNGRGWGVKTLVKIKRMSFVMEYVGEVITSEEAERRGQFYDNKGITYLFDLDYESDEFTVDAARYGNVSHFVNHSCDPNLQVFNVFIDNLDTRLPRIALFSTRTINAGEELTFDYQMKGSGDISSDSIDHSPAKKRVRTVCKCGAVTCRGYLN
Assay [2] addresses T1, SUV39H2. Kind of assay: biochemical.
The subject of another assay is PC14. As to the kind of experiment: Cell-based assay, anti-proliferative activity (Cell Counting Kit-8, 72 hours). The note with it: Homo sapiens, PC-14; PC14 cells, Cell Counting Kit-8, 72 hours; read-out: IC50 (μM) PC14. In a few lines: as §1

Read-outs that look alike come from different tables or passages of the source.

The IC50 is the concentration at which inhibition is half-maximal. In the case of `COc1cc(OC)c(-c2cn3ccc(N4CCN(C(C)C)CC4)cc3n2)cc1Cl` [Example 100, 2-(5-chloro-2,4-dimethoxyphenyl)-7-(4-isopropylpiperazin-1-yl)imidazo-[1,2-a]pyridine], the 50% inhibitory concentration (IC50) was found to be 5.6 µM with A549; 5.8 µM in the assay on CCD-18Co; 3.2 µM in the assay with HCT-116; 3.2 µM with HFL1; 0.0136 µM on SUV39H2 [1]; 0.0154 µM on SUV39H2 [2].

For the compound `CCCS(=O)(=O)NC1CCN(c2ccn3cc(-c4cc(Cl)c(OC)cc4OC)nc3n2)CC1` [Example 193, N-(1-(2-(5-chloro-2,4-dimethoxyphenyl)imidazo[1,2-a]pyrimidin-7-yl)-piperidin-4-yl)propane-1-sulfonamide], the IC50 in the assay with A549 turned out to be 10 µM; with CCD-18Co, 10 µM; in the assay on HCT-116 it was 10 µM; in the assay on HFL1, 10 µM; with PC14, 6.7 µM; against SUV39H2 [2], 0.0327 µM.
